Laboratory results taken from patent publication US9352013B2, “Uses of bremelanotide in therapy for female sexual dysfunction” (Palatin Technologies, Inc., priority 2012, dated 2016).
“Also recorded” adds a separate entry of the source.

Columns and labels:
female rats = details: cited from earlier work
[1] = Example 1: adverse events and discontinuations; format: in vivo, human; details: for Adverse event leading to withdrawal: Flushing, subjects (%) / Adverse event leading to withdrawal: Hypertension, subjects (%) / Adverse event leading to withdrawal: Nausea, subjects (%) / Adverse event leading to withdrawal: Vomiting, subjects (%) / Adverse event: Any leading to withdrawal, subjects (%) / Adverse event: Any, subjects (%) / Adverse event: Flushing, subjects (%) / Adverse event: Headache, subjects (%) / Adverse event: Injection-site pain, subjects (%) / Adverse event: Injection-site pruritus, subjects (%) / Adverse event: Nausea, subjects (%) / Adverse event: Upper respiratory tract infection, subjects (%): double-blind treatment
Method: (§1) A multi-centered, placebo-controlled, randomized, parallel group trial with fixed dose levels and designed to identify appropriate doses of bremelanotide administered by subcutaneous injection in premenopausal females with FSAD and/or HSDD, under the conditions of home use, was conducted. Subjects received a single dose of placebo (subject-blinded) in-clinic followed by 4 weeks of subject-blinded placebo treatment at home (subjects self-administered treatment as needed). Subjects who continued to qualify for the trial then received 2 single in-clinic doses of randomized treatment (double-blind; approximately one week apart), followed by 12 weeks of double-blind treatment at home (subjects self-administered treatment as needed).
Bremelanotide was well-tolerated during the trial. The most common types of treatment-emergent adverse events reported more frequently in the bremelanotide arms were facial flushing, nausea, emesis and headache. The study dosed 395 patients. A total of 26 patients discontinued from the study based on preset blood pressure change criterion spread across all arms (N=26, Placebo: 6, bremelanotide arms—0.75 mg: 4, 1.25 mg: 9, 1.75 mg: 7). A total of 19 patients discontinued from the study based on adverse events spread across all arms (N=19, Placebo: 5, bremelanotide arms—0.75 mg: 2, 1.25 mg: 4, 1.75 mg: 8). The adverse events that most commonly lead to discontinuation (other than meeting the blood pressure criterion) were flushing, nausea and emesis. Based on a safety review by an independent Data Safety Monitoring Board, no significant safety issues or concerns were identified during the study. […] Adverse events during the double-blind treatment period are shown on Table 6 below.

[2] = test system: men diagnosed with erectile dysfunction; details: subcutaneous injection of either a 4 or 6 mg dose; cited from earlier work
[3] = Adverse events with single-dose SC administration (Trials-14, -06, -10); format: in vivo, human
Method: Subcutaneous dosing was tested in 5 Phase 1 trials (3 in females, 2 in males) and one Phase 2 trial (males). The most common adverse events associated with single-dose SC bremelanotide administration (Trials-14, -06, and -10) were somnolence (30%), flushing (15%), nausea (19%), and vomiting (10%).

[4] = test system: premenopausal females with FSAD and/or HSDD; test: Example 1: placebo-controlled at-home trial of subcutaneous bremelanotide, efficacy (SSEs, FSFI, FSDS-DAO); format: in vivo, human
Method: as §1
Subjects were randomized (1:1:1:1) to one of four study treatment groups (placebo or doses with 0.75, 1.25, or 1.75 mg net weight bremelanotide). Randomization occurred immediately prior to the first in-clinic dose of double-blind treatment. Study drug and placebo was provided as pre-filled syringes in 0.3 mL volume, with subjects instructed on self-administration into the anterior thigh or abdomen.
Enrolled subjects were premenopausal women who met the diagnostic criteria for FSAD, HSDD, or mixed FSAD/HSDD, utilizing a diagnostic screening guide including categorization of the sexual dysfunction as both acquired (vs. lifelong) and generalized (vs. situational). Subjects enrolled had previously been sexually “functional;” that is, experienced sexual arousal during sexual activity and/or a normal level of desire at some point in the past for a period of at least 2 years.
Enrolled subjects were provided with an electronic diary system (eDiary) with instructions to complete an FSEP-R questionnaire with each sexual encounter. At selected in-clinic visits, subjects completed other assessment questionnaires, including SIDI-F, FSDS-DAO, FSFI, GAQ and WITS-9. In addition, various vital sign measures were conducted and blood and urine samples collected at selected in-clinic visits.
The measurement period was defined as the number of events during the last four weeks of treatment minus the number of events during the baseline period, with outcomes reported for pooled results of women taking the two highest bremelanotide dose levels versus placebo.
The FSFI is a 19-item questionnaire which provides for an additional measurement of changes over a longer recall period. • FSFI total score improvement (mean change of 3.55 vs. 1.88, p=0.0017) • Reduced associated distress related to sexual dysfunction, as measured by the Female Sexual Distress Scale-DAO (FSDS-DAO). The FSDS-DAO 15-item questionnaire is designed to assess and quantify the change in personal distress associated with FSD. • FSDS-DAO total score improvement (mean change of −11.1 vs. −6.8, p=0.036).

[5] = Single SC doses in male subjects with ED and preexisting hypertension: tolerability; format: in vivo, human; details: single subcutaneous doses of 4 and 6 mg

**Q.** What does the source list for `CCCC[C@H](NC(C)=O)C(=O)N[C@H]1CC(=O)NCCCC[C@@H](C(=O)O)NC(=O)[C@H](Cc2c[nH]c3ccccc23)NC(=O)[C@H](CCCNC(=N)N)NC(=O)[C@@H](Cc2ccccc2)NC(=O)[C@H](Cc2c[nH]cn2)NC1=O` [bremelanotide, Ac-Nle-cyclo(-Asp-His-D-Phe-Arg-Trp-Lys)-OH]?
**A.** Effect on appetitive sexual behavior (female rats): selective pharmacological effect on appetitive sexual behavior was observed; Dopamine release in the medial preoptic area (female rats; subcutaneous injections): increasing dopamine release; Immediate-early gene product Fos in limbic and hypothalamic structures (female rats; subcutaneous injections): inducing; Patients discontinued based on adverse events ([1]; 0.75 mg SC): 2; Patients discontinued on preset blood pressure change criterion ([1]; 0.75 mg SC): 4; Adverse event leading to withdrawal: Flushing, subjects (%) ([1]; 0.75 mg SC (N = 100)): 0; Adverse event leading to withdrawal: Hypertension, subjects (%) ([1]; 0.75 mg SC (N = 100)): 2 (2%); Adverse event leading to withdrawal: Nausea, subjects (%) ([1]; 0.75 mg SC (N = 100)): 0; Adverse event leading to withdrawal: Vomiting, subjects (%) ([1]; 0.75 mg SC (N = 100)): 0; Adverse event: Any leading to withdrawal, subjects (%) ([1]; 0.75 mg SC (N = 100)): 2 (2%); Adverse event: Any, subjects (%) ([1]; 0.75 mg SC (N = 100)): 64 (64%); Adverse event: Flushing, subjects (%) ([1]; 0.75 mg SC (N = 100)): 17 (17%); Adverse event: Headache, subjects (%) ([1]; 0.75 mg SC (N = 100)): 9 (9%); Adverse event: Injection-site pain, subjects (%) ([1]; 0.75 mg SC (N = 100)): 6 (6%); Adverse event: Injection-site pruritus, subjects (%) ([1]; 0.75 mg SC (N = 100)): 4 (4%); Adverse event: Nausea, subjects (%) ([1]; 0.75 mg SC (N = 100)): 18 (18%); Adverse event: Upper respiratory tract infection, subjects (%) ([1]; 0.75 mg SC (N = 100)): 8 (8%); Patients discontinued based on adverse events ([1]; 1.25 mg SC): 4; Patients discontinued on preset blood pressure change criterion ([1]; 1.25 mg SC): 9; Adverse event leading to withdrawal: Flushing, subjects (%) ([1]; 1.25 mg SC (N = 99)): 1 (1%); Adverse event leading to withdrawal: Hypertension, subjects (%) ([1]; 1.25 mg SC (N = 99)): 0; Adverse event leading to withdrawal: Nausea, subjects (%) ([1]; 1.25 mg SC (N = 99)): 0; Adverse event leading to withdrawal: Vomiting, subjects (%) ([1]; 1.25 mg SC (N = 99)): 1 (1%); Adverse event: Any leading to withdrawal, subjects (%) ([1]; 1.25 mg SC (N = 99)): 4 (4%); Adverse event: Any, subjects (%) ([1]; 1.25 mg SC (N = 99)): 61 (62%); Adverse event: Flushing, subjects (%) ([1]; 1.25 mg SC (N = 99)): 14 (14%); Adverse event: Headache, subjects (%) ([1]; 1.25 mg SC (N = 99)): 9 (9%); Adverse event: Injection-site pain, subjects (%) ([1]; 1.25 mg SC (N = 99)): 6 (6%); Adverse event: Injection-site pruritus, subjects (%) ([1]; 1.25 mg SC (N = 99)): 4 (4%); Adverse event: Nausea, subjects (%) ([1]; 1.25 mg SC (N = 99)): 22 (22%); Adverse event: Upper respiratory tract infection, subjects (%) ([1]; 1.25 mg SC (N = 99)): 5 (5%); Patients discontinued based on adverse events ([1]; 1.75 mg SC): 8; Patients discontinued on preset blood pressure change criterion ([1]; 1.75 mg SC): 7; Adverse event leading to withdrawal: Flushing, subjects (%) ([1]; 1.75 mg SC (N = 98)): 1 (1%); Adverse event leading to withdrawal: Hypertension, subjects (%) ([1]; 1.75 mg SC (N = 98)): 1 (1%); Adverse event leading to withdrawal: Nausea, subjects (%) ([1]; 1.75 mg SC (N = 98)): 3 (3%); Adverse event leading to withdrawal: Vomiting, subjects (%) ([1]; 1.75 mg SC (N = 98)): 3 (3%); Adverse event: Any leading to withdrawal, subjects (%) ([1]; 1.75 mg SC (N = 98)): 8 (8%); Adverse event: Any, subjects (%) ([1]; 1.75 mg SC (N = 98)): 67 (68%); Adverse event: Flushing, subjects (%) ([1]; 1.75 mg SC (N = 98)): 17 (17%); Adverse event: Headache, subjects (%) ([1]; 1.75 mg SC (N = 98)): 14 (14%); Adverse event: Injection-site pain, subjects (%) ([1]; 1.75 mg SC (N = 98)): 7 (7%); Adverse event: Injection-site pruritus, subjects (%) ([1]; 1.75 mg SC (N = 98)): 6 (6%); Adverse event: Nausea, subjects (%) ([1]; 1.75 mg SC (N = 98)): 24 (24%); Adverse event: Upper respiratory tract infection, subjects (%) ([1]; 1.75 mg SC (N = 98)): 4 (4%); Tolerability during the trial ([1]; 0.75-1.75 mg SC): generally well tolerated; Serious adverse events related to treatment ([1]; Example 1 study): none were considered related; also recorded: no serious adverse events; Erectile response compared to placebo [2]: statistically significant erectile response; Adverse event: flushing [3]: 15%; Adverse event: nausea [3]: 19%; Adverse event: somnolence [3]: 30%; Adverse event: vomiting [3]: 10%; Frequency of Satisfying Sexual Events (SSEs), mean at end of study ([4]; pooled 1.25 mg and 1.75 mg SC, from 1.6 at baseline, placebo 1.7 to 1.9): 2.4; FSFI total score improvement, mean change from baseline to end of study ([4]; pooled 1.25 mg and 1.75 mg SC, placebo 1.88): 3.55; FSDS-DAO total score improvement, mean change from baseline to end of study ([4]; pooled 1.25 mg and 1.75 mg SC, placebo −6.8): −11.1; Increase in SSEs ([4]; pooled 1.25 mg and 1.75 mg SC, versus 12% with placebo): 50%; Efficacy in premenopausal women with FSDs ([4]; self-administered at home at 1.25 and 1.75 mg SC): effective in decreasing distress, increasing arousal and desire, and increasing the number of SSEs; Percentage of women with end-of-study FSFI and FSDS-DAO total score levels above 26.5 and 18 ([4]; versus placebo, exploratory analysis): higher percentage; Tolerability [5]: improved tolerability
